# Assay results from patent EP4737449A1 (Changchun Genescience Pharmaceutical Co., Ltd., priority 2023, dated 2025).
# pIC50: −log10 of the molar value. Read-outs that look alike come from different tables or passages of the source.
# What was measured:
# NUGC-3 cells = assay: NUGC-3 cell proliferation assay (CTG, 7 days); type: cell-based, human
# Procedure, shortened: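 Cells (200/well) in 1640 medium with 10% serum exposed to 10-point, 3-fold DMSO dilutions (duplicates) for 7 days at 37°C. Viability read by CellTiter-Glo luminescence; % inhibition normalized to DMSO and blank, IC50 from variable-slope nonlinear fit.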
# [1] = molecular target: CYP 3A4 enzyme in human liver microsomes (Homo sapiens, UniProt P08684); assay: CYP3A4 inhibition experiment in human liver microsomes
# Experimental: The inhibitory effects of the test compounds on CYP 3A4T (with testosterone as substrate) and 3A4M (with midazolam as substrate) in human liver microsomes were evaluated in vitro to assess the medication safety of the compounds.
# This study used the human liver microsome system and the cytochrome P450 enzyme probe substrate recommended by FDA guidelines for in vitro drug interaction studies to investigate the inhibition of the CYP 3A4 enzyme in human liver microsomes by the test compounds.
# Test group (TG): Human liver microsomes were incubated with different concentrations of test compounds, NADPH (final concentration 2.00 mM) and probe substrates of different sub-enzymes (Table 4) for 5 min.
# Positive control group (PC): Human liver microsomes were incubated with inhibitors (Table 4), NADPH (final concentration 2.00 mM) and probe substrates of different sub-enzymes (Table 4) for 5 min. Table 4 Probe substrates of sub-enzymes, inhibitors and incubation systems
# The system was pre-incubated at 37°C for 5 min, and then 15 µL of 8 mM NADPH solution preheated at 37°C for 5-10 min to start the reaction. After incubation of the 96-well plate at 37°C for 5 min, 180 µL of acetonitrile:methanol (ACN:MeOH=1:1) solution containing internal standard (IS) was added to terminate the reaction. […] 80 µL of the supernatant was taken, added to 120 µL of ultrapure water, shaken evenly, and then detected by LC-MS/MS.
# 199 µL of 0.2 mg/mL HLM and 1 µL of 1 mM positive control inhibitor (ketoconazole) working solutions were taken and mixed evenly. 30 µL of the drug-containing liver microsome solution was taken and added to a 96-well plate, then 10 µL of substrate working solution (20 µM midazolam) was added, in duplicate. The system was pre-incubated at 37°C for 5 min, and then 15 µL of 8 mM NADPH solution preheated at 37°C for 5-10 min to start the reaction. After incubation of the 96-well plate at 37°C for 5 min, 180 µL of ACN:MeOH(1:1) solution containing IS was added to terminate the reaction. […] 80 µL of the supernatant was taken, added to 120 µL of ultrapure water, shaken evenly, and then detected by LC-MS/MS.
# 4.2.5.1 The relative activity of CYP450 sub-enzymes at different concentrations was calculated by dividing the peak area ratio (analyte peak area/internal standard peak area) of metabolites in the presence of the test sample or positive control by the peak area ratio of metabolites in the solvent control sample in the absence of the test article or positive control, according to the following formula: [formula] [formula]
# 4.2.5.2 Half maximal inhibitory concentration (IC50) was obtained by fitting according to the following model formula using Prism software: Y = Bottom + (Top−Bottom)/(1+10^(∧)((LogIC50−X)×HillSlope)) [formula]
# X is the test sample concentration converted to logarithm (Log µM), Y is the relative activity (% of NC), Bottom and Top represent the percentage of enzyme activity at the bottom platform and top platform of the curve, respectively, and HillSlope represents the slope; to optimize the fitting effect, the use of other (nonlinear) dose-response models for fitting is not considered as a deviation from the protocol.
# p53-Y220C mutant protein = molecular target: T1, p53-Y220C mutant protein (Homo sapiens, UniProt P04637, Y220C); assay: In vitro DNA binding activity assay (TR-FRET); type: biochemical; conditions: concentration required to increase the binding activity of protein to DNA by 50%
# T1 construct: The recombinant Y220C p53 DBD protein with his-tag
# Procedure, shortened: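 SC150, the compound concentration increasing p53-Y220C DNA binding by 50% relative to vehicle, came from background-corrected 665/615 nm TR-FRET ratios. His-tagged DBD and compound were preincubated 60 min at RT before biotin-DNA plus Eu-anti-His/streptavidin-d2 detection overnight in the dark.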
# [2] = Homo sapiens, NUGC-3, 168 h, NUGC-3 cell proliferation, 7 days, CTG, read-out: IC50
# [3] = CYP 3A4M IC50, human liver microsomes, midazolam as substrate
# [4] = CYP 3A4T IC50, human liver microsomes, testosterone as substrate
# Sequence of CYP 3A4 enzyme in human liver microsomes (P08684 whole entry): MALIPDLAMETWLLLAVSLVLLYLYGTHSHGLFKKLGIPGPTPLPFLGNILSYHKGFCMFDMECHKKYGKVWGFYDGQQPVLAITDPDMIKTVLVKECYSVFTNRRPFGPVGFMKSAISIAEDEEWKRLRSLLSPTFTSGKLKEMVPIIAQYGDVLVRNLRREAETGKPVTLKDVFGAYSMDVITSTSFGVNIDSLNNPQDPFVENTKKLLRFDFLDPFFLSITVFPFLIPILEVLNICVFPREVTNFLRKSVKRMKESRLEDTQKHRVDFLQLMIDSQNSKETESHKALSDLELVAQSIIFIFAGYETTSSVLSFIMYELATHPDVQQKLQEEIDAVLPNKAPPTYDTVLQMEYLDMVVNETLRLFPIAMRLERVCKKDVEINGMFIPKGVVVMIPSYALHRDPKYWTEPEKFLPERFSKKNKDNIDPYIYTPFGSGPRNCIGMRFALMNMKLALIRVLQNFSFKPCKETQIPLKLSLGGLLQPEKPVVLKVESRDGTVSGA
Structure (SMILES),"pIC50 [1, 3]","pIC50 [1, 4]",SC150 (p53-Y220C mutant protein) [nM],pIC50 (NUGC-3 cells; [2]),"pIC50 (NUGC-3 cells; NUGC-3 cell proliferation, 7 days, CTG, read-out: IC50)","pIC50 (NUGC-3 cells; Homo sapiens, NUGC-3, 168 h)"
"CC(n1ncc(C(=O)NCC#Cc2nn3c(N[C@@H]4CCN(C)C[C@@H]4F)cccc3c2CC(F)(F)F)c1N)C(F)(F)F (single isomer, unassigned) [Compound 355B]",4.90,4.86,16,–,6.81,–
"CN1CC[C@@H](Nc2cccc3c(CC(F)(F)F)c(C#CCNC(=O)c4ccn(C(C)(C)C)c4)nn23)[C@@H](F)C1 [Compound 087, 1-(tert-butyl)-N-(3-(7-{[(3S,4R)-3-fluoro-1-methylpiperidin-4-yl]amino}-3-(2,2,2-trifluoroethyl)pyrazolo[1,5-a]pyridin-2-yl)prop-2-yn-1-yl)-1H-pyrrole-3-carboxamide]",< 4.52,< 4.52,19,5.86,–,–
"CN1CC[C@@H](Nc2cccc3c(CC(F)(F)F)c(C#CCNC(=O)c4cnn5c4CC(C)(C)C5)nn23)[C@@H](F)C1 [Compound 146, N-[3-(7-{[(3S,4R)-3-fluoro-1-methylpiperidin-4-yl]amino}-3-(2,2,2-trifluoroethyl)pyrazolo[1,5-a]pyridin-2-yl)prop-2-yn-1-yl]-5,5-dimethyl-5,6-dihydro-4H-pyrrolo[1,2-b]-1Hpyrazole-3-carboxamide]",5.01,4.98,13,–,–,6.02
"CN1CC[C@@H](Nc2cccc3c(CC(F)(F)F)c(C#CCNC(=O)c4cnn5c4CCCC5)nn23)[C@@H](F)C1 [Compound 276, N-[3-(7-{[(3S,4R)-3-fluoro-1-methylpiperidin-4-yl]amino}-3-(2,2,2-trifluoroethyl)pyrazolo[1,5-a]pyridin-2-yl)prop-2-yn-1-yl]-4,5,6,7-tetrahydropyrazolo[1,5-a]pyridine-3-carboxamide]",4.76,< 4.52,18,6.07,–,–
"CCn1ccc(C(=O)NCC#Cc2nn3c(N[C@@H]4CCN(C)C[C@@H]4F)cccc3c2CC(F)(F)F)c1 [Compound 277, 1-ethyl-N-[3-(7-{[(3S,4R)-3-fluoro-1-methylpiperidin-4-yl]amino}-3-(2,2,2-trifluoroethyl)pyrazolo[1,5-a]pyridin-2-yl)prop-2-yn-1-yl]-1H-pyrrole-3-carboxylic acid amide]",4.91,4.80,14,–,–,6.14
"Cc1cc(C(=O)NCC#Cc2nn3c(N[C@@H]4CCN(C)C[C@@H]4F)cccc3c2CC(F)(F)F)co1 [Compound 278, N-[3-(7-{[(3S,4R)-3-fluoro-1-methylpiperidin-4-yl]amino}-3-(2,2,2-trifluoroethyl)pyrazolo[1,5-a]pyridin-2-yl)prop-2-yn-1-yl]-5-methylfuran-3-carboxamide]",4.83,4.89,24,5.95,–,–
"CN1CC[C@@H](Nc2cccc3c(CC(F)(F)F)c(C#CCNC(=O)c4cc5n(c4)CCOC5)nn23)[C@@H](F)C1 [Compound 281, N-[3-(7-{[(3S,4R)-3-fluoro-1-methylpiperidin-4-yl]amino}-3-(2,2,2-trifluoroethyl)pyrazolo[1,5-a]pyridin-2-yl)prop-2-yn-1-yl]-3,4-dihydro-1H-pyrrolo[2,1-c][1,4]oxazine-7-carboxamide]",< 4.52,< 4.52,13,6.38,–,–
"CN1CC[C@@H](Nc2cccc3c(CC(F)(F)F)c(C#CCNC(=O)c4ncn(C(C)(C)C)c4N)nn23)[C@@H](F)C1 [Compound 283, 5-amino-1-tert-butyl-N [3-(7-{[(3S,4R)-3-fluoro-1-methylpiperidin-4-yl]amino}-3-(2,2,2-trifluoroethyl)pyrazolo[1,5-a]pyridin-2-yl)prop-2-yn-1-yl]-1H-pyrazole-4-carboxamide]",< 4.52,4.74,19,–,–,5.79
"CN1CC[C@@H](Nc2cccc3c(CC(F)(F)F)c(C#CCNC(=O)c4cnn(C56CC(C5)C6)c4N)nn23)[C@@H](F)C1 [Compound 289, 5-amino-1-(dicyclo[1.1.1]pent-1-yl)-N-[3-(7-{[(3S,4R)-3-fluoro-1-methylpiperidin-4-yl]amino}-3-(2,2,2-trifluoroethyl)pyrazolo[1,5-a]pyridin-2-yl)prop-2-yn-1-yl]-1H-pyrazole-4-carboxamide]",4.89,4.88,5,–,–,6.74
CCC(C)(C)n1ncc(C(=O)NCC#Cc2nn3c(N[C@@H]4CCN(C)C[C@@H]4F)cccc3c2CC(F)(F)F)c1N [Compound 351],4.74,4.66,7,–,–,–

# Second part, led by results:
"pIC50 [1, 3]","pIC50 [1, 4]",SC150 (p53-Y220C mutant protein) [nM],Structure (SMILES),pIC50 (NUGC-3 cells; [2]),"pIC50 (NUGC-3 cells; NUGC-3 cell proliferation, 7 days, CTG, read-out: IC50)","pIC50 (NUGC-3 cells; Homo sapiens, NUGC-3, 168 h)"
< 4.52,4.85,7,"CC(n1ncc(C(=O)NCC#Cc2nn3c(N[C@@H]4CCN(C)C[C@@H]4F)cccc3c2CC(F)(F)F)c1N)C(F)(F)F (single isomer, unassigned) [Compound 355A]",6.78,–,–
4.69,4.56,10,"COC(C)(C)Cn1cc(C(=O)NCC#Cc2nn3c(N[C@@H]4CCN(C)C[C@@H]4F)cccc3c2CC(F)(F)F)cn1 [Compound 039, N-[3-(7-{[(3S,4R)-3-fluoro-1-methylpiperidin-4-yl]amino}-3-(2,2,2-trifluoroethyl)pyrazolo[1,5-a]pyridin-2-yl)prop-2-yn-1-yl]-1-(2-methoxy-2-methylpropyl)-1H-pyrazole-4-carboxamide]",–,–,–
< 4.52,4.79,4,"CN1CC[C@@H](Nc2cccc3c(CC(F)(F)F)c(C#CCNC(=O)c4cnn(C5(C)CC5)c4N)nn23)[C@@H](F)C1 [Compound 263, 5-amino-N-[3-(7-{[(3S,4R)-3-fluoro-1-methylpiperidin-4-yl]amino}-3-(2,2,2-trifluoroethyl)pyrazolo[1,5-a]pyridin-2-yl)prop-2-yn-1-yl]-1-(1-methylcyclopropyl)-1H-pyrazole-4-carboxamide]",6.57,–,–
< 4.52,< 4.52,12,"CN1CC[C@@H](Nc2cccc3c(CC(F)(F)F)c(C#CCNC(=O)c4cnn5c4COCC5)nn23)[C@@H](F)C1 [Compound 274, N-[3-(7-{[(3S,4R)-3-fluoro-1-methylpiperidin-4-yl]amino}-3-(2,2,2-trifluoroethyl)pyrazolo[1,5-a]pyridin-2-yl)prop-2-yn-1-yl]-6,7-dihydro-4H-pyrazolo[5,1-c][1,4]oxazine-3-carboxamide]",6.21,–,–
< 4.52,< 4.52,27,"CN1CC[C@@H](Nc2cccc3c(CC(F)(F)F)c(C#CCNC(=O)c4ccc(N5CCOCC5)nc4)nn23)[C@@H](F)C1 [Compound 275, N-[3-(7-{[(3S,4R)-3-fluoro-1-methylpiperidin-4-yl]amino}-3-(2,2,2-trifluoroethyl)pyrazolo[1,5-a]pyridin-2-yl)prop-2-yn-1-yl]-(6-morpholin-4-yl)pyridine-3-carboxamide]",6.05,–,–
4.74,4.61,9,"COCCn1ccc(C(=O)NCC#Cc2nn3c(N[C@@H]4CCN(C)C[C@@H]4F)cccc3c2CC(F)(F)F)c1 [Compound 279, N-[3-(7-{[(3S,4R)-3-fluoro-1-methylpiperidin-4-yl]amino}-3-(2,2,2-trifluoroethyl)pyrazolo[1,5-a]pyridin-2-yl)prop-2-yn-1-yl]-1-(methoxyethyl)-1H-pyrrole-3-carboxamide]",6.17,–,–
